Molecules are shown by their SMILES.

Common to all, as to format: cell-based
Experiment [1] has as its system TNF-α production in LPS + IFN-γ activated RAW 264.7 macrophages. Description: Inhibition of TNF-α production (ELISA) in LPS + IFN-γ activated RAW 264.7 macrophages. To be noted: Mus musculus, RAW264.7, 24 hrs, N = 6, mean ± SD. How it is done: (§1) All compounds were assessed for their anti-inflammatory activity by evaluating the inhibition of NO production and TNF-α in LPS plus interferon (IFN)-γ activated RAW 264.7 macrophages. All compounds were also evaluated for their cytotoxicity using the Alamar blue assay (Table 3).
(§2) Cells were grown in 75 cm^2 flasks on Dulbecco’s Modified Eagle Medium (DMEM) containing 10% fetal bovine serum (FBS) that was supplemented with penicillin (100 U/mL), streptomycin (100 μg/mL) and L-glutamine (2 mM). The cell line was maintained in 5% CO2 at 37 °C, with media being replaced every 3–4 days. Once cells had grown to confluence in the culture flask, they were harvested using a rubber policeman, as opposed to using trypsin, which can remove membrane-bound receptors.
(§3) RAW 264.7 cells (1 × 10^6 cells/mL) were seeded in 96 well plates (Corning® Costar®, Sigma, Sydney, Australia) overnight until confluency. When the cells were confluent, each compound was serially diluted from a starting concentration of 100 μg mL^−1 to construct a dose response curve (i.e., 100, 50, 25, 12.5, 6.25, and 3.13 μg mL^−1) and co-incubated with cells for 1 hr prior to the addition of 1 μg mL^−1 LPS and 10 U mL^−1 (1 unit = 0.1 ng/mL) IFN-γ. After activation, the cells were incubated for another 24 hrs at 37 °C. The supernatant was then collected for NO, and TNF-α assays. The cells were subjected to cell viability measurement using the Alamar Blue assay. Non-activated cells (exposed to media only) were used as negative control and activated cells were positive control.
The stored supernatants were analyzed for TNF-α synthesis using a commercial ELISA kit (Peprotech, Brisbane, Australia) according to the manufacturer’s instructions. The absorbance was measured at 410 nm. The concentrations of TNF-α in the experimental samples were extrapolated from a standard curve.
(§4) Data analysis was carried using GraphPad Prism 9.3.1. Calculations were performed using MS-Excel version 16.61.1. IC50 values were obtained by using the sigmoidal dose–response function in GraphPad Prism. The results were expressed as mean ± standard deviation (SD).
Background: In an ELISA, binding on a coated surface is turned into a signal by an enzyme label.

Another experiment deals with RAW 264.7 macrophages. Description: Cell viability / cytotoxicity by the Alamar Blue assay. The following applies: Mus musculus, RAW264.7, 24 h, LPS + IFN-γ activated RAW 264.7 macrophages, N = 6, mean ± SD. Here is the method:
as §1, §2, §3
After various treatments and the stimulation by LPS and IFN-γ overnight, 100 µL of Alamar Blue solution [10% Alamar Blue (resazurin) in DMEM media] was added to cells and incubated at 37 °C for 2 hrs. The fluorescence intensity was measured with excitation at 530 nm and emission at 590 nm using a microplate reader. The results were expressed as a percentage of the intensity to that of control cells (non-activated cells).
as §4
A general note: Resazurin is reduced to fluorescent resorufin, in cell work by metabolically active cells.

The subject of experiment [2] is nitric oxide (NO) production in LPS + IFN-γ activated RAW 264.7 macrophages. Put plainly: Inhibition of NO production (Griess assay) in LPS + IFN-γ activated RAW 264.7 macrophages. The following applies: for IC50: Mus musculus, RAW264.7, 24 hrs, N = 6, mean ± SD; for Anti-inflammatory activity (in words): verbal judgement of Table 3 data. Here is the method: as §1, §2, §3
Nitric oxide was determined by the Griess reagent as described in previous studies. Griess reagent was freshly made up of equal volumes of 1% sulfanilamide in 5% phosphoric acid and 0.1% N-1-naphthylethylenediamine dihydrochloride in Milli-Q water. From each well, 50 µL of supernatant was transferred to a fresh 96-well plate and mixed with 50 µL of Griess reagent. The production of nitrite as an indicator of NO was measured at 540 nm in a POLARstar Omega microplate reader (BMG Labtech, Mornington, Australia).
as §4
(In general: The Griess reaction detects nitrite, a stable product of nitric oxide.)

The IC50 is the point on the concentration scale where inhibition reaches its midpoint. Usually CC50 stands for the concentration giving 50% cytotoxicity. Consider `COc1c(C)c(O)cc2c1C[C@@H]1OCc3c(cc4c(c3O)OCO4)[C@H]1O2` [Compound 1, Myrtinol A], for which the IC50 in experiment [1] turned out to be 24.5 ± 0.28 µg/mL; in experiment [2], 11.5 ± 0.14 µg/mL. In addition, the CC50 in the experiment on RAW 264.7 macrophages is 18.8 ± 0.39 µg/mL.

Regarding `COc1cc2c(c(O)c1OC)CO[C@H]1Cc3c(cc(O)c(C)c3OC)O[C@H]21` [Compound 2, Myrtinol B], the IC50 in experiment [1] is 52.4 ± 7.47 µg/mL; in experiment [2] it was 16.2 ± 0.77 µg/mL. Besides, in the experiment on RAW 264.7 macrophages, the CC50 was 37.2 ± 2.09 µg/mL.

As to `COc1cc2c(c(O)c1C)[C@@H](O)[C@@H]1OCc3c(cc(OC)c(OC)c3O)[C@H]1O2` [Compound 3, Myrtinol C], the IC50 in experiment [1] was over 100 µg/mL. Further, the cytotoxic concentration (CC50) in the experiment on RAW 264.7 macrophages is over 100 µg/mL. In experiment [2], the IC50 is over 100 µg/mL and the “Anti-inflammatory activity (in words)” value was “inactive”.

As for `COc1cc2c(c(O)c1C)C[C@@H]1OCc3c(cc(OC)c(OC)c3O)[C@H]1O2` [Compound 4, Myrtinol D], the values for the concentration for half-maximal inhibition (IC50) in experiment [1] and in experiment [2] were 91.3 ± 7.14 µg/mL and 29.3 ± 10.9 µg/mL, respectively. For the same compound, the CC50 in the experiment with RAW 264.7 macrophages came to 71.5 ± 14.7 µg/mL.

For the compound `COc1cc2c(c(OC)c1C)C[C@@H]1OCc3c(cc4c(c3O)OCO4)[C@H]1O2` [Compound 5, Myrtinol E], the half-inhibitory concentration (IC50) in experiment [1] came out at 17.2 ± 0.22 µg/mL; in experiment [2] it was 8.51 ± 0.47 µg/mL. For the same compound, the cytotoxic concentration (CC50) with RAW 264.7 macrophages was 15.5 ± 0.42 µg/mL.

For the compound `COc1cc2c(c(OC)c1C)C[C@@H]1OCc3c(cc(OC)c(OC)c3O)[C@H]1O2` [Compound 6, Myrtinol F], the IC50 in experiment [1] was 30.6 ± 5.01 µg/mL; in experiment [2] it was 12.6 ± 0.26 µg/mL. Also, the cytotoxic concentration (CC50) with RAW 264.7 macrophages turned out to be 19.8 ± 0.86 µg/mL.

For `COc1ccc([C@@H]2Oc3c(O)cc(CCCO)cc3[C@H]2CO)cc1OC` [Compound 7, 4-O-methylcedrusin], the half-maximal inhibitory concentration (IC50) in experiment [1] was over 100 µg/mL. The 50% cytotoxic concentration (CC50) with RAW 264.7 macrophages was over 100 µg/mL. Also, in experiment [2], the half-maximal inhibitory concentration (IC50) came to 44.1 ± 13.4 µg/mL and the “Anti-inflammatory activity (in words)” value was “did not show good anti-inflammatory activity”.

For the compound `COc1cc([C@@H]2Oc3c(OC)cc(CCCO)cc3[C@H]2CO)ccc1O` [Compound 8, 7-O-methylcedrusin], the IC50 in experiment [1] and in experiment [2] was over 100 µg/mL each time. The 50% cytotoxic concentration (CC50) with RAW 264.7 macrophages was over 100 µg/mL. Further, in experiment [2], the “Anti-inflammatory activity (in words)” value is given as “did not show good anti-inflammatory activity”.

Turning to `COc1cc2oc(-c3ccc(O)cc3)cc(=O)c2c(O)c1C` [Compound 9, 8-demethylsideroxylin], the IC50 in experiment [1] was 46.8 ± 5.87 µg/mL; in experiment [2] it was 8.3 ± 0.96 µg/mL. For the same compound, the 50% cytotoxic concentration (CC50) in the experiment with RAW 264.7 macrophages stood at 20.4 µg/mL.

For the compound `COc1cc(/C=C/C(=O)CC(=O)/C=C/c2ccc(O)c(OC)c2)ccc1O` [curcumin, reference compound], the IC50 in experiment [1] came to 4.19 ± 2.6 µg/mL; in experiment [2], 4.64 ± 1.5 µg/mL. Besides, in the experiment on RAW 264.7 macrophages, the CC50 was 10.9 ± 1.3 µg/mL.

The record behind these values is publication PMC10004088, “Myrtinols A–F: New Anti-Inflammatory Peltogynoid Flavonoid Derivatives from the Leaves of Australian Indigenous Plant Backhousia myrtifolia” (Molecules, 2023).
